Source: US20230374015A1, “INHIBITORS OF FIBROBLAST GROWTH FACTOR RECEPTOR KINASES” (Kinnate Biopharma Inc., priority 2020, published 2023)
Where a name gives a salt, the structure may show the parent alone.

biological target: FGFR2 (Homo sapiens, UniProt P21802); experiment: FGFR2 Kinase Protocol - Condition 2 (Reaction Biology HotSpot radiometric kinase assay, no preincubation); assay type: biochemical; details: poly[Glu:Tyr] (4:1) 0.2 mg/ml, ATP 100 microM, 2 hr room temperature
Experimental: Example 2: FGFR2 Kinase Protocol—Condition 2
The Reaction Biology HotSpot assay platform (http://www.reactionbiology.com) was used to measure kinase/inhibitor interactions as described previously (Anastassiadis et al., 2011). In brief, for each reaction, kinase and substrate were mixed in a buffer containing 20 mM HEPES (pH 7.5), 10 mM MgCl2, 1 mM EGTA, 0.02% Brij35, 0.02 mg/mL BSA, 0.1 mM Na3VO4, 2 mM DTT, and 1% DMSO. All compounds were in powder form and freshly solubilized in DMSO for assays. Compounds were then added to each reaction mixture via acoustic dispense using an ECHO 550 nanoliter dispenser. For Human FGFR2 wildtype testing, a peptide substrate, poly[Glu:Tyr] (4:1) was used to promote the reaction at a concentration of 0.2 mg/ml. For Human FGFR2 (V564F) testing, a peptide substrate, poly[Glu:Tyr] (4:1) was used to promote the reaction at a concentration of 0.2 mg/ml. ATP concentration for all assays was maintained at 100 micromolar. Compounds were tested in 10-dose IC50 mode with a 3-fold serial dilution. Compounds were added to plates and ATP was added directly to the wells. ATP (Sigma-Aldrich, St. Louis, MO 63178) and [g33P] ATP (specific activity 10 microCi/microliter) purchased at PerkinElmer (Boston, MA, 02118 Cat #BLU 003H250UC) were added at a final total concentration of 100 microM to each well with no preincubation. Reactions were carried out at room temperature for 2 hr and spotted onto P81 ion exchange cellulose chromatography paper (Reaction Biology). Filter paper was washed in 0.75% phosphoric acid to remove unincorporated ATP. The percent remaining kinase activity relative to a vehicle-containing (DMSO) kinase reaction was calculated for each kinase/inhibitor pair. IC50 values were calculated using Dotmatics Knowledge Solutions Studies curve fitting (Dotmatics, Bishops Stortford, UK, CM23).

Sequence of FGFR2 (P21802 22-821): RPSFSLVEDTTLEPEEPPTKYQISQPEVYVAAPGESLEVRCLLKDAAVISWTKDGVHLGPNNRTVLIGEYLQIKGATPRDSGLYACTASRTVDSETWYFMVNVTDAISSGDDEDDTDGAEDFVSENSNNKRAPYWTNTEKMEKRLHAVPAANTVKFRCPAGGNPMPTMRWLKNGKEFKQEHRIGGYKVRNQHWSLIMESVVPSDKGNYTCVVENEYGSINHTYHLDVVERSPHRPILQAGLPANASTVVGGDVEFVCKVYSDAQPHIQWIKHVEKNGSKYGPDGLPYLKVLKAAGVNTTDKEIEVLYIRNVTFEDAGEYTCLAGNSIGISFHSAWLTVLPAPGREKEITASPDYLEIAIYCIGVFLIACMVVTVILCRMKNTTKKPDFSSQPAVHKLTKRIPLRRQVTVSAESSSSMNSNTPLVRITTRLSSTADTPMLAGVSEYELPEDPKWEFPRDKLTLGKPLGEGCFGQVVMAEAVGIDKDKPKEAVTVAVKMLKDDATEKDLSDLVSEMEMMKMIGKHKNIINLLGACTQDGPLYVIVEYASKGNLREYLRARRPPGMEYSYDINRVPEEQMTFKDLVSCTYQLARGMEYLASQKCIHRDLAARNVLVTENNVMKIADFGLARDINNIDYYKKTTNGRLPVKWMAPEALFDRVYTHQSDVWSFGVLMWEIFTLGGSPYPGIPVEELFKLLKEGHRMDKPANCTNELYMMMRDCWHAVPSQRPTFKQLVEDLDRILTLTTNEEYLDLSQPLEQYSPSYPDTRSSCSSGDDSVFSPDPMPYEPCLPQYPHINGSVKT

IC50, ≤ 100 nM:
C=CC(=O)N1C[C@@H](n2nc(C#Cc3c(F)cc4c(ncn4C)c3F)c3c(N)ncnc32)C[C@@H]1COC [Example 55, 1-[(2R,4S)-4-[4-Amino-3-[2-(4,6-difluoro-1-methyl-1,3-benzodiazol-5-yl)ethynyl]pyrazolo[3,4-d]pyrimidin-1-yl]-2-(methoxymethyl)pyrrolidin-1-yl] prop-2-en-1-one]
C=CC(=O)N1C[C@@H](n2nc(C#Cc3ccc4c(c3)ncn4C)c3c(N)ncnc32)C[C@@H]1COC(F)(F)F [Example 56, 1-((2R,4S)-4-(4-Amino-3-((1-methyl-1H-benzo[d]imidazol-5-yl)ethynyl)-1H-pyrazolo[3,4-d]pyrimidin-1-yl)-2-((trifluoromethoxy)methyl)pyrrolidin-1-yl)prop-2-en-1-one]
C=CC(=O)N1C[C@@H](n2nc(C#Cc3cc4ncn(C)c4cc3F)c3c(N)ncnc32)C[C@@H]1COC(F)(F)F [Example 57, 1-[(2R,4S)-4-[4-Amino-3-[2-(6-fluoro-1-methyl-1,3-benzodiazol-5-yl)ethynyl]pyrazolo[3,4-d]pyrimidin-1-yl]-2-[(trifluoromethoxy)methyl]pyrrolidin-1-yl]prop-2-en-1-one]
C=CC(=O)N1C[C@@H](n2nc(C#Cc3ccc4c(c3)ncn4C)c3c(N)nccc32)C[C@@H]1COC(F)(F)F [Example 58, 1-((2R,4S)-4-(4-Amino-3-((1-methyl-1H-benzo[d]imidazol-5-yl)ethynyl)-1H-pyrazolo[4,3-c]pyridin-1-yl)-2-((trifluoromethoxy)methyl)pyrrolidin-1-yl)prop-2-en-1-one formate]
C=CC(=O)N1C[C@@H](n2nc(C#Cc3cc4ncn(C)c4cc3F)c3c(N)nccc32)C[C@@H]1COC(F)(F)F [Example 59, 1-((2R,4S)-4-(4-amino-3-((6-fluoro-1-methyl-1H-benzo[d]imidazol-5-yl)ethynyl)-1H-pyrazolo[4,3-c]pyridin-1-yl)-2-((trifluoromethoxy)methyl)pyrrolidin-1-yl)prop-2-en-1-one formate]
C=CC(=O)N1C[C@@H](n2nc(C#Cc3c(F)cc4c(ncn4C)c3F)c3c(N)nccc32)C[C@@H]1COC(F)(F)F [Example 60, 1-[(2R,4S)-4-[4-Amino-3-[2-(4,6-difluoro-1-methyl-1,3-benzodiazol-5-yl)ethynyl]pyrazolo[4,3-c]pyridin-1-yl]-2-[(trifluoromethoxy)methyl]pyrrolidin-1-yl]prop-2-en-1-one]
C=CC(=O)N1C[C@@H](n2cc(C#Cc3c(F)cc4c(ncn4C)c3F)c3c(N)ncnc32)C[C@@H]1COC [Example 61, 1-[(2R,4S)-4-[4-Amino-5-[2-(4,6-difluoro-1-methyl-1,3-benzodiazol-5-yl)ethynyl]pyrrolo[2,3-d]pyrimidin-7-yl]-2-(methoxymethyl)pyrrolidin-1-yl]prop-2-en-1-one]
C=CC(=O)N1C[C@@H](n2nc(C#Cc3cc4ncn(C)c4cc3F)c3c(N)ncnc32)C[C@@H]1COC [Example 62, 1-[(2R,4S)-4-[4-Amino-3-[2-(6-fluoro-1-methyl-1,3-benzodiazol-5-yl)ethynyl]pyrazolo[3,4-d]pyrimidin-1-yl]-2-(methoxymethyl)pyrrolidin-1-yl]prop-2-en-1-one]
C=CC(=O)N1C[C@@H](n2cc(C#Cc3cc4ncn(C)c4cc3F)c3c(N)ncnc32)C[C@@H]1COC [Example 63, 1-[(2R,4S)-4-[4-Amino-5-[2-(6-fluoro-1-methyl-1,3-benzodiazol-5-yl)ethynyl]pyrrolo[2,3-d]pyrimidin-7-yl]-2-(methoxymethyl)pyrrolidin-1-yl]prop-2-en-1-one]
C=CC(=O)N1C[C@@H](n2nc(C#Cc3c(F)cc4c(ncn4C(F)F)c3F)c3c(N)ncnc32)C[C@@H]1COC [Example 64, 1-[(2R,4S)-4-(4-Amino-3-[2-[1-(difluoromethyl)-4,6-difluoro-1,3-benzodiazol-5-yl]ethynyl]pyrazolo[3,4-d]pyrimidin-1-yl)-2-(methoxymethyl)pyrrolidin-1-yl]prop-2-en-1-one]
C=CC(=O)N1C[C@@H](n2nc(C#Cc3c(F)cc4c(ncn4C(F)F)c3F)c3c(N)nccc32)C[C@@H]1COC [Example 65, 1-[(2R,4S)-4-(4-Amino-3-[2-[1-(difluoromethyl)-4,6-difluoro-1,3-benzodiazol-5-yl]ethynyl]pyrazolo[4,3-c]pyridin-1-yl)-2-(methoxymethyl)pyrrolidin-1-yl]prop-2-en-1-one]
C=CC(=O)N1C[C@@H](n2cc(C#Cc3ccc4c(c3)ncn4C)c3c(N)ncnc32)C[C@@H]1COC(F)(F)F [Example 66, 1-[(2R,4S)-4-[4-Amino-5-[2-(1-methyl-1,3-benzodiazol-5-yl)ethynyl]pyrrolo[2,3-d]pyrimidin-7-yl]-2-[(trifluoromethoxy)methyl]pyrrolidin-1-yl]prop-2-en-1-one]
C=CC(=O)N1C[C@@H](n2cc(C#Cc3cc4ncn(C)c4cc3F)c3c(N)ncnc32)C[C@@H]1COC(F)(F)F [Example 67, 1-((2R,4S)-4-(4-Amino-5-((6-fluoro-1-methyl-1H-benzo[d]imidazol-5-yl)ethynyl)-7H-pyrrolo[2,3-d]pyrimidin-7-yl)-2-((trifluoromethoxy)methyl)pyrrolidin-1-yl)prop-2-en-1-one]
C=CC(=O)N1C[C@@H](n2cc(C#Cc3c(F)cc4c(ncn4C)c3F)c3c(N)ncnc32)C[C@@H]1COC(F)(F)F [Example 68, 1-((2R,4S)-4-(4-Amino-5-((4,6-difluoro-1-methyl-1H-benzo[d]imidazol-5-yl)ethynyl)-7H-pyrrolo[2,3-d]pyrimidin-7-yl)-2-((trifluoromethoxy)methyl)pyrrolidin-1-yl)prop-2-en-1-one]
C=CC(=O)N1C[C@@H](n2cc(C#Cc3c(F)cc4c(ncn4C(F)F)c3F)c3c(N)ncnc32)C[C@@H]1COC [Example 69, 1-[(2R,4S)-4-(4-Amino-5-[2-[1-(difluoromethyl)-4,6-difluoro-1,3-benzodiazol-5-yl]ethynyl]pyrrolo[2,3-d]pyrimidin-7-yl)-2-(methoxymethyl)pyrrolidin-1-yl]prop-2-en-1-one]
C=CC(=O)N1C[C@@H](n2nc(C#Cc3c(F)cc4c(ncn4CC)c3F)c3c(N)ncnc32)C[C@@H]1COC(F)(F)F [Example 70, 1-((2R,4S)-4-(4-Amino-3-((1-ethyl-4,6-difluoro-1H-benzo[d]imidazol-5-yl)ethynyl)-1H-pyrazolo[3,4-d]pyrimidin-1-yl)-2-((trifluoromethoxy)methyl)pyrrolidin-1-yl)prop-2-en-1-one]
C=CC(=O)N1C[C@@H](n2nc(C#Cc3cc4ncn(CC)c4cc3F)c3c(N)ncnc32)C[C@@H]1COC(F)(F)F [Example 71, 1-[(2R,4S)-4-[4-amino-3-[2-(1-ethyl-6-fluoro-1,3-benzodiazol-5-yl)ethynyl]pyrazolo[3,4-d]pyrimidin-1-yl]-2-[(trifluoromethoxy)methyl]pyrrolidin-1-yl]prop-2-en-1-one]
C=CC(=O)N1C[C@@H](n2nc(C#Cc3c(F)cc4c(ncn4C4CC4)c3F)c3c(N)ncnc32)C[C@@H]1COC [Example 72, 1-[(2R,4S)-4-[4-Amino-3-[2-(1-cyclopropyl-4,6-difluoro-1,3-benzodiazol-5-yl)ethynyl]pyrazolo[3,4-d]pyrimidin-1-yl]-2-(methoxymethyl)pyrrolidin-1-yl]prop-2-en-1-one]
